Reference: US8952024B2, “Herbicidal pyrimidone derivatives” (E I du Pont de Nemours and Company, priority 2009, dated 2015)

Key:
Assay type in all cases: in vivo
[1] = system: barnyardgrass (Echinochloa crus-galli); assay: Test A pre-/postemergence plant response
In short: (§1)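 Plants grown from seed in a loam soil and sand mix received test compounds both as a preemergence soil spray and, at the same time, as a postemergence spray at the one- to two-leaf stage. Injury was judged visually against untreated controls roughly ten days later, 0 meaning no effect and 100 complete control.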

corn (Zea mays) = assay: Test A pre-/postemergence plant response
In short: as §1

[2] = system: giant foxtail (Setaria faberii); assay: Test A pre-/postemergence plant response
In short: as §1

[3] = system: large crabgrass (Digitaria sanguinalis); assay: Test A pre-/postemergence plant response
In short: as §1

[4] = system: morningglory (Ipomoea spp.); assay: Test A pre-/postemergence plant response
In short: as §1

[5] = system: pigweed (Amaranthus retroflexus); assay: Test A pre-/postemergence plant response
In short: as §1

[6] = system: velvetleaf (Abutilon theophrasti); assay: Test A pre-/postemergence plant response
In short: as §1

[7] = system: wheat (Triticum aestivum); assay: Test A pre-/postemergence plant response
In short: as §1

[8] = system: winter barley (Hordeum vulgare); assay: Test B postemergence plant response
In short: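 Plants at the 1- to 4-leaf stage (2 to 18 cm tall), grown in pots of peat moss/vermiculite medium with wetting agent and starter nutrients, received postemergence applications of test chemicals. After 13 to 15 days in a greenhouse, injury was rated visually against untreated controls on a 0 (no effect) to 100 (complete control) scale.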

[9] = system: barnyardgrass (Echinochloa crus-galli); assay: Test B flooded paddy test; conditions: for Plant response rating, Flood, Barnyardgrass: 250 g ai/ha, flooded paddy test, visual rating on 0 to 100 scale (0 no effect, 100 complete control) after 13 to 15 days; for Plant response rating, Barnyardgrass: Flood (flooded paddy test), 13 to 15 days
In short: (§2)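 Visual scores run from 0 (no effect) to 100 (complete control), assigned by comparison with controls 13 to 15 days after treatment. Test compounds went straight into water standing 3 cm above the soil, around plants at the 2-leaf stage kept in a greenhouse.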

[10] = system: ducksalad (Heteranthera limosa); assay: Test B flooded paddy test; conditions: for Plant response rating, Flood, Ducksalad: 250 g ai/ha, flooded paddy test, visual rating on 0 to 100 scale (0 no effect, 100 complete control) after 13 to 15 days; for Plant response rating, Ducksalad: Flood (flooded paddy test), 13 to 15 days
In short: as §2

rice (Oryza sativa) = assay: Test B flooded paddy test; conditions: for Plant response rating, Flood, Rice: 250 g ai/ha, flooded paddy test, visual rating on 0 to 100 scale (0 no effect, 100 complete control) after 13 to 15 days; for Plant response rating, Rice: Flood (flooded paddy test), 13 to 15 days
In short: as §2

[11] = system: umbrella sedge (Cyperus difformis); assay: Test B flooded paddy test; conditions: for Plant response rating, Flood, Sedge, Umbrella: 250 g ai/ha, flooded paddy test, visual rating on 0 to 100 scale (0 no effect, 100 complete control) after 13 to 15 days; for Plant response rating, Sedge, Umbrella: Flood (flooded paddy test), 13 to 15 days
In short: as §2

[12] = Postemergence, 125 g ai/ha, 0 to 100 scale where 0 is no effect and 100 is complete control
[13] = Postemergence, 500 g ai/ha, 0 to 100 scale, 0 = no effect, 100 = complete control, approx. ten days
[14] = Preemergence, 125 g ai/ha, 0 to 100 scale, 0 = no effect, 100 = complete control
[15] = Preemergence, 500 g ai/ha, visual injury, 0 to 100 scale (0 no effect, 100 complete control), approx. ten days
[16] = Postemergence, 125 g ai/ha, visual rating after 13 to 15 days, scale 0 (no effect) to 100 (complete control)
[17] = 62 g ai/ha, scale of 0 to 100 where 0 is no effect and 100 is complete control
[18] = 125 g ai/ha, scale 0 to 100, 0 is no effect, 100 is complete control
[19] = Flood, 31 g ai/ha, scale 0 to 100 (0 no effect, 100 complete control)
[20] = Postemergence, 125 g ai/ha, visual injury, 0 to 100 scale (0 no effect, 100 complete control), approx. ten days

CC(C)n1c(-c2ccccc2)ncc(C(=O)C2=C(O)CCCC2=O)c1=O [Compound 95]
70: Plant response rating, Foxtail, Giant [2, 12] | Plant response rating, Morningglory [4, 14] | Plant response rating, Flood, Barnyardgrass [9]
100: Plant response rating, Morningglory [4, 12] | Plant response rating, Morningglory [4, 13] | Plant response rating, Pigweed [5, 12] | Plant response rating, Pigweed [5, 13] | Plant response rating, Pigweed [5, 15] | Plant response rating, Velvetleaf [6, 12] | Plant response rating, Velvetleaf [6, 13] | Plant response rating, Velvetleaf [6, 15]
75: Plant response rating, Flood, Sedge, Umbrella [11]
35: Plant response rating, Barnyardgrass [9, 17]
20: Barnyardgrass plant response rating [9, 19] | Plant response rating, Flood, Ducksalad [10] | Plant response rating, Rice (rice (Oryza sativa); [17]) | Plant response rating, Sedge, Umbrella [11, 17]
10: Plant response rating, Corn (corn (Zea mays); [13])
0: Plant response rating, Corn (corn (Zea mays); [12]) | Plant response rating, Corn (corn (Zea mays); [14]) | Plant response rating, Corn (corn (Zea mays); [15]) | Plant response rating, Wheat [7, 12] | Plant response rating, Wheat [7, 13] | Plant response rating, Wheat [7, 14] | Plant response rating, Wheat [7, 15] | Plant response rating, Barley ([8]; 31 g ai/ha, postemergence, scale 0 to 100, 0 is no effect, 100 is complete control) | Barley plant response rating (0 to 100 scale) ([8]; 62 g ai/ha, postemergence, 0 is no effect, 100 is complete control, 13 to 15 days) | Plant response rating, Barley [8, 16] | Plant response rating, Barley ([8]; Postemergence, 250 g ai/ha, scale 0 to 100 (0 no effect, 100 complete control)) | Plant response rating, Ducksalad [10, 17] | Plant response rating, Ducksalad [10, 18] | Ducksalad plant response rating [10, 19] | Rice plant response rating (rice (Oryza sativa); [19]) | Sedge, Umbrella plant response rating [11, 19]
80: Plant response rating, Barnyardgrass [1, 12] | Plant response rating, Barnyardgrass [1, 15]
65: Plant response rating, Barnyardgrass [9, 18]
40: Plant response rating, Barnyardgrass [1, 14]
50: Plant response rating, Crabgrass, Large [3, 14] | Plant response rating, Sedge, Umbrella [11, 18]
30: Plant response rating, Foxtail, Giant [2, 14] | Plant response rating, Flood, Rice (rice (Oryza sativa)) | Plant response rating, Rice (rice (Oryza sativa); [18])
90: Plant response rating, Barnyardgrass [1, 13] | Plant response rating, Foxtail, Giant [2, 13] | Plant response rating, Crabgrass, Large [3, 12] | Plant response rating, Crabgrass, Large [3, 13] | Plant response rating, Crabgrass, Large [3, 15] | Plant response rating, Morningglory [4, 15] | Plant response rating, Pigweed [5, 14] | Plant response rating, Velvetleaf [6, 14]
60: Plant response rating, Foxtail, Giant [2, 15]

Cc1cccc(Cl)c1-n1c(-c2ccccc2)ncc(C(=O)C2=C(O)CCCC2=O)c1=O [Compound 46]
60: Foxtail, Giant plant response rating [2, 20] | Plant response rating, Foxtail, Giant [2, 15] | Morningglory plant response rating [4, 20] | Plant response rating, Pigweed [5, 14]
45: Plant response rating, Sedge, Umbrella [11, 17]
0: Plant response rating, Barnyardgrass [1, 14] | Corn plant response rating (corn (Zea mays); [20]) | Plant response rating, Corn (corn (Zea mays); [14]) | Plant response rating, Corn (corn (Zea mays); [15]) | Plant response rating, Foxtail, Giant [2, 14] | Wheat plant response rating [7, 20] | Plant response rating, Wheat [7, 13] | Plant response rating, Wheat [7, 14] | Plant response rating, Barley ([8]; Postemergence, 31 g ai/ha, scale 0 to 100 (0 no effect, 100 complete control)) | Plant response rating, Barley ([8]; Postemergence, 62 g ai/ha, scale 0 (no effect) to 100 (complete control), 13 to 15 days) | Plant response rating, Barley [8, 16] | Barley plant response rating ([8]; Postemergence, 250 g ai/ha, scale 0 to 100) | Plant response rating, Flood, Barnyardgrass [9] | Plant response rating, Barnyardgrass [9, 17]
30: Plant response rating, Crabgrass, Large [3, 14]
90: Plant response rating, Barnyardgrass [1, 13] | Plant response rating, Foxtail, Giant [2, 13] | Plant response rating, Crabgrass, Large [3, 13] | Plant response rating, Pigweed [5, 15]
50: Plant response rating, Barnyardgrass [1, 15]
70: Crabgrass, Large plant response rating [3, 20] | Plant response rating, Morningglory [4, 13] | Plant response rating, Morningglory [4, 15] | Plant response rating, Velvetleaf [6, 15]
40: Plant response rating, Velvetleaf [6, 14]
20: Plant response rating, Corn (corn (Zea mays); [13]) | Plant response rating, Wheat [7, 15] | Plant response rating, Flood, Ducksalad [10] | Plant response rating, Ducksalad [10, 17]
65: Plant response rating, Flood, Sedge, Umbrella [11]
100: Plant response rating, Pigweed [5, 13] | Velvetleaf plant response rating [6, 20] | Plant response rating, Velvetleaf [6, 13]
10: Plant response rating, Morningglory [4, 14] | Plant response rating, Flood, Rice (rice (Oryza sativa)) | Plant response rating, Rice (rice (Oryza sativa); [17])
80: Barnyardgrass plant response rating [1, 20] | Plant response rating, Crabgrass, Large [3, 15] | Pigweed plant response rating [5, 20]
